This note sets out measurements from article PMC8233510 (Molecular Biology and Evolution, 2021).

The term Km denotes the substrate concentration at which the rate is half of its maximum.

Holding throughout (assay): […]-SAM radiochemical methyltransferase assay, Michaelis-Menten fit
Common to all, as to conditions: SAM 320 μM (saturating), 50 mM Tris-HCl, 24 °C

For assay [1], the system named is TcAncCS2. Format: biochemical, synthetic construct.
Assay [2] has as its system PcCS2. Format: biochemical, Paullinia cupana.
Assay [3] has as its system TcCS2. Format: biochemical, Theobroma cacao.
Assay [4] relates to TcAncCS1. Format: biochemical, synthetic construct.
The test system of assay [5] is CsAncCS. Format: biochemical, synthetic construct.
In assay [6] the test system is PcAncCS1. Format: biochemical, synthetic construct.
Assay [7] concerns PcCS1. Format: biochemical, Paullinia cupana.
Assay [8] concerns TcCS1. Format: biochemical, Theobroma cacao.

Regarding `Cn1c(=O)[nH]c(=O)c2[nH]cnc21` [3X, 3-methylxanthine], the Michaelis constant (Km) in assay [1] was determined as 154 µM; in assay [2], 677 µM; in assay [3], 49.1 µM; in assay [4], 139 µM.
For the compound `Cn1cnc2[nH]c(=O)[nH]c(=O)c21` [7X, 7-methylxanthine], the results for the Michaelis-Menten constant (Km) in assay [4] and in assay [5] were 34.6 µM and 26.7 µM, respectively.
As to `O=c1[nH]c(=O)c2[nH]cnc2[nH]1` [X, xanthine], the Km in assay [6] came to 418 µM; in assay [1], 4.14 µM; in assay [4], 53.4 µM; in assay [7], 95.4 µM; in assay [8], 95.8 µM.
